One data set relates to NCI-H1944. As to the kind of experiment: Antiproliferative activity against human NCI-H1944 cells assessed as reduction in cell viability at 0.4 uM by CCK8 assay. The format is functional, cell-based. As to conditions: time 3-6 day. In general terms: Tetrazolium assays rely on reduction of a dye to a coloured formazan, in cell work by metabolically active cells.
The next data set concerns NCI-H1975. As to the kind of experiment: Antiproliferative activity against human NCI-H1975 cells assessed as reduction in cell viability at 0.4 uM by CCK8 assay. The following applies: time 3-6 day. The format is functional, cell-based.
Data set [1] can be described thus: Half life in male ICR mouse at 1 mg/kg, iv measured up to 24 hrs by LC-MS/MS analysis. The following applies: in vivo. Format: ADME, organism-based.
Data set [2] can be described thus: Observed AUC (0 to infinity) in male ICR mouse at 1 mg/kg, iv measured up to 24 hrs by LC-MS/MS analysis. The format is ADME, organism-based. The following applies: in vivo.
Another data set deals with NCI-H520. As to the kind of experiment: Antitumor activity against human NCI-H520 cells xenografted in BALB/c mouse assessed as tumor growth inhibition at 50 to 100 mg/kg, po administered daily via gavage and measured every 3 days for 14 days. The format is functional, organism-based. The following applies: dose 50-100 mg/kg, time 14.0 day.

The source made the active and inactive calls. No cut-off for these calls is given here.

As to `O=C1C(Cl)=C(NCCc2cccc(F)c2)C(=O)c2ncccc21`, the Activity result in the data set on NCI-H1944 and with NCI-H1975 was “Time-dependent-effect” in each case. Besides, in data set [1], the half-life (commonly how long it takes for the measured level to halve) was 12 min. Also, the AUC(0-inf) – broadly, total exposure, with the tail of the curve extrapolated – in data set [2] came to 10.1 ng·h/mL. Moreover, the outcome in the data set with NCI-H520 was Active.
